# Assays:
# CYP2C9 = test: CYP phenotyping cocktail clinical study: torsemide/OH-torsemide metabolic ratio and its association with PCB plasma levels; settings: linear regression of MR AUC0–8 h OH-torsemide/torsemide (CYP2C9 activity) on PCB plasma concentration
# Description: (§1) The participants were ascertained not to have any acute disease by medical history, physical examination, laboratory screening, including hematological and biochemical blood tests, and a 12-lead electrocardiogram. […] The demographic data of the subjects are summarized in Table 1 in the supplemental data. At the enrollment visit, 2 blood samples (9 ml each) were collected into ethylenediaminetetraacetic acid (EDTA)-containing tubes taken from each subject for analyzing the plasma concentrations of PCB congeners and for pharmacogenetic analysis.
# (§2) Participants stayed fasted from the evening before until 3 h after drug administration. After that, a meal was provided. Water and juice were permitted but alcoholic and caffeinated beverages were not allowed from the evening before drug administration until the last blood sample was taken on the next day. Venous blood samples (9 ml each) were collected through an intravenous catheter immediately before and 0.25, 0.5, 0.75, 1, 1.5, 2, 2.5, 3, 4, 5, 6, 7, 8, and 24 h after drug administration. Blood was drawn into EDTA-coated tubes, centrifuged at 1500 g for 10 min at 4 °C, and plasma samples were subsequently stored at − 80 °C until further analysis. After completely voiding the bladder immediately before drug administration, the participants collected urine from 0 to 24 h after drug administration. After weighing the collected urine, a 10 ml aliquot of each fraction was taken.
# (§3) Commercially sourced standards and internal standards were used for quantification (see Supplemental Materials). In brief, 20 µl of the plasma samples were protein-precipitated with 80 µl methanol containing all internal standards or were treated for 16 h at 37 °C with 2 µl β-glucuronidase (1,000,000 Units) for deconjugation before protein precipitation with 78 µl methanol containing internal standards. Samples were centrifuged for 20 min, at 4 °C and 17,000 × g, and 40 µl of the supernatants were diluted with 40 µl LC–MS grade water, centrifuged again for 5 min at 4 °C and 17,000 × g and 50 µl supernatant were transferred to LC–MS vials 5 µl of the samples were injected into the LC–MS system.
# (§4) An Agilent 1290 Infinity II UHPLC coupled with a SCIEX QTRAP6500 + triple quadrupole mass spectrometer was used. Chromatographic separation was achieved on an Agilent Poroshell 120 EC-C18 (1.9 µm, 2.1 × 50 mm) column with A: 0.1% formic acid in water and B: methanol with a flow rate of 0.7 ml/min and a total run time of 8.5 min. Analytes were eluted using a gradient program. The following gradient steps represent gradual changes in % B over time: 5% B from 0 to 0.2 min, 30% B at 2 min, 34% B at 4.8 min, 95% B at 6.5 min, 95% B at 7.5 min and re-equilibrating to 5% B at 7.7 min and 5%B till 8.5 min. A representative chromatogram is shown in supplemental Fig. 2. The scheduled MRM mode was applied for analyte detection in both positive and negative ESI modes (Supplementary Table 4). Calibration curves were constructed with linear regression using weighted (1/x^2) models (detailed information in supplemental methods).
# (§5) Partial areas under the plasma concentration–time curves from 0 to 3 h (AUC0–3 h), from 0 to 4 h (AUC0–4 h), and from 0 to 8 h (AUC0–8 h) were calculated based on measured concentrations by the linear trapezoidal rule without extrapolation. […] Metabolic ratios (MR) were calculated by dividing the partial AUC of the metabolite by the respective partial AUC of the parent drug. The MRs were used as biomarkers for the individual CYP activities of the study subjects.
# CYP1A2 = test: CYP phenotyping cocktail clinical study: caffeine/paraxanthine metabolic ratio and its association with PCB plasma levels
# Description: as §1, §2, §3
# An Agilent 1290 Infinity II UHPLC coupled with a SCIEX QTRAP6500 + triple quadrupole mass spectrometer was used. […]
# as §5, with “The MRs were used as biomarkers for the individual CYP activities of the study subjects.” left out
# recombinant CYP1A2 = biological target: T1, recombinant CYP1A2 (Homo sapiens, UniProt P05177); test: Luciferase-based P450-Glo enzyme assay with recombinant CYP1A2; assay type: biochemical; settings: PCB118 1–10 µM; Luciferin–ME substrate; significant at highest concentration (p < 0.0001)
# T1 construct: purchased Promega, Madison, WI, USA
# T1 sequence (P05177 1-516): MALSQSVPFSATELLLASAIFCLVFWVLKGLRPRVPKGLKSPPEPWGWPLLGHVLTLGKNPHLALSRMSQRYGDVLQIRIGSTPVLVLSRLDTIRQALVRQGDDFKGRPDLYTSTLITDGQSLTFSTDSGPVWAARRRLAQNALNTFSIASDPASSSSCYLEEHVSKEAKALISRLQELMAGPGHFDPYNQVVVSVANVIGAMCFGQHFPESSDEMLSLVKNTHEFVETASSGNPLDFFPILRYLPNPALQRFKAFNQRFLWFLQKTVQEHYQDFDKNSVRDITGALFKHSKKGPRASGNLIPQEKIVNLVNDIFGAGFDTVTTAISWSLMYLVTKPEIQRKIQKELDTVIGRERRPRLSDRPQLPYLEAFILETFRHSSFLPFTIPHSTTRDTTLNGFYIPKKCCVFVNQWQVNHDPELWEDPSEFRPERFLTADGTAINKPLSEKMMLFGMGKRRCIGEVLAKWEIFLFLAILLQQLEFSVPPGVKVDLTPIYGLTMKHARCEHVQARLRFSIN
# CYP2B6 = test: CYP phenotyping cocktail clinical study: efavirenz/8-OH-efavirenz metabolic ratio and its association with PCB plasma levels; settings: linear regression of MR AUC0–8 h 8-OH-efavirenz/efavirenz (CYP2B6 activity) on PCB plasma concentration
# Description: as §1, §2, §3, §4, §5
# CYP1A2 mRNA = CYP1A2 mRNA expression in primary human hepatocytes (qRT-PCR); assay type: cell-based; settings: three donors, 48 h exposure, PCB118 0.1–0.5 µM, omeprazole positive control
# [1] = Determination of PCB concentrations in plasma of HELPcB and control participants; assay type: in vivo; settings: human plasma
smiles,measurement,setting,value
Clc1ccc(-c2cc(Cl)c(Cl)cc2Cl)cc1Cl [PCB118],t value,CYP2C9,"1,339"
same,β (standardized regression coefficient),CYP2C9,"0,301"
same,t value,CYP2C9; PM excl,"1,228"
same,β (standardized regression coefficient),CYP2C9; PM excl,"0,286"
same,association with CYP1A2 activity in hierarchical generalized mixed model,"CYP1A2; adjusted for co-factors (smoking status, gender, BMI, age)",became significant when smoking status was included as a co-factor
same,proportion of variability in CYP1A2 activity explained,"CYP1A2; linear regression, MR paraxanthine/caffeine on PCB118 plasma concentration",~ 15.5%
same,effect on CYP1A2 enzyme activity (luminescence),recombinant CYP1A2,concentration-dependent inhibitory effect
same,t value,CYP2B6,"1,020"
same,β (standardized regression coefficient),CYP2B6,"0,255"
same,t value,CYP2B6; PM excl,"0,839"
same,β (standardized regression coefficient),CYP2B6; PM excl,"0,227"
same,effect on CYP1A2 mRNA expression,CYP1A2 mRNA,did not significantly alter CYP1A2 mRNA levels
same,"PCB plasma concentration, Mean [±SD] HELPcB",[1]; HELPcB (occupationally exposed) group,0.122 ± 0.122 ng/mL
same,"PCB plasma concentration, Geometric mean, HELPcB","[1]; HELPcB group, N 10",0.075 ng/mL
same,"PCB plasma concentration, Mean [±SD] all",[1]; all participants,0.072 ± 0.099 ng/mL
same,"PCB plasma concentration, Mean [±SD] control",[1]; control group (background exposure),0.022 ± 0.012 ng/mL
same,"PCB plasma concentration, Geometric mean, Control","[1]; control group, N 10",0.019 ng/mL

# Reference: paper PMC12477080, “Polychlorinated biphenyls (PCBs) interact with drug metabolism in vivo” (Archives of Toxicology, 2025)
